2 molecules from paper PMC6328587 (Nature Communications, 2019) can be followed below.

In one series the target is T1, p38δ (Homo sapiens, UniProt O15264).
T1 construct: endogenous in cells; host or cells: MDA-MB-231
T1 sequence (O15264 1-365): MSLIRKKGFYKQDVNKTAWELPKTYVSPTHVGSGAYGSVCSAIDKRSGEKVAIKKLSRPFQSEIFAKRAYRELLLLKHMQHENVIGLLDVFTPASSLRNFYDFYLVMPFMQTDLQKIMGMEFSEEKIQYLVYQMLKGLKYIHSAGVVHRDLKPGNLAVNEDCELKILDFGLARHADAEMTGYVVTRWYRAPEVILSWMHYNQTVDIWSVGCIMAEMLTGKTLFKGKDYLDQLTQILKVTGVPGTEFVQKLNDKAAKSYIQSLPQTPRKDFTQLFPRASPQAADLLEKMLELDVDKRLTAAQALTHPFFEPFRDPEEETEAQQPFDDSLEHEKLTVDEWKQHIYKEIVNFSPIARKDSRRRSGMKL
The series can be described thus: CETSA in MDA-MB-231 cell lysate, p38δ. In kind it is binding. The conditions noted are these: 100 µM PROTAC, 51-55 °C, vs DMSO. The protocol: CETSA protocol was adapted from[60]. In all, 3 × 10^7 MDA-MB-231 cells (1 × 10^7 cells per condition) were collected and resuspended in ice-cold 1X PBS supplemented with 1X protease inhibitor cocktail (Roche) and lysed by three cycles of liquid nitrogen snap freeze, followed by 50% thaw in a room temperature water bath and an additional 50% thaw at 4 °C. After each freeze–thaw cycle, lysate was vortexed briefly to ensure homogenous thawing. Lysate was then cleared for 20 min by centrifugation (14,000 × g at 4 °C) and the soluble fraction was divided into three equal aliquots. The aliquots were treated with vehicle (2.5% DMSO), 100 µM SJFα, or 100 µM SJFδ and incubated at room temperature for 30 min with gentle rotation. Each aliquot was then divided (50 µL) into eight PCR tubes and individually heated at the indicated temperature for 3 min followed by cooling at room temperature for 3 min. After cooling, samples were spun down for 20 min (14,000 × g at 4 °C) and the supernatant (soluble fraction) was analyzed by SDS-PAGE and immunoblotted for p38δ and alpha-tubulin (negative control).

The target in another series is T2, FLAG-p38δ (Homo sapiens, UniProt O15264).
T2 construct: expressed in transfected cells; host or cells: HeLa
T2 sequence (O15264 1-365): T1 sequence (O15264 1-365)
Description: Ubiquitination assay, FLAG-p38δ and HA-Ub in HeLa cells. In kind it is cell-based. The conditions noted are these: 1 µM PROTAC, 2 h. How it is done:
HeLa cells (2 × 10^6) were seeded into 10 cm dishes and allowed to adhere overnight. On the following day, cells were transfected with 3 µg pcDNA5-FLAG-p38α or pcDNA5-FLAG-p38δ and 1 µg pRK5-HA-Ubiquitin-WT (Addgene plasmid #17608) in Opti-MEM media using Lipofectamine 2000 (Invitrogen). After 6 h, Opti-MEM media were replaced with DMEM (1 × ) and cells were grown for an additional 24 h. After this time, cells were treated with indicated concentrations of either vehicle (DMSO) or PROTAC for the indicated amount of time at 37 °C. Cells were then placed on ice, rinsed twice with ice-cold 1X PBS and lysed in 500 µL modified 1X RIPA buffer (25 mM Tris-HCl pH 7.6, 150 mM NaCl, 1% NP-40, 1% sodium deoxycholate, 0.1% SDS) containing 5 mM 1,10-phenanthroline monohydrate, 10 mM N-ethylmaleimide, 20 µM PR-619, and 1X protease inhibitor cocktail (Roche). Lysates were spun down at 14,000 × g at 4 °C for 20 min and protein content was measured by Pierce BCA Protein Assay (ThermoFisher Scientific). […] Immunoprecipitated protein was eluted off of the beads by heating at 95 °C for 5 min and the supernatant was run on an SDS-PAGE gel and evaluated for the presence of immunoprecipitated FLAG-tagged proteins (anti-FLAG M2, Sigma #F1804), as well as ubiquitinated FLAG-tagged proteins (anti-HA-tag (6E2), CST #2367). […]

The next series has as its target T3, p38δ:PROTAC:VHL (Homo sapiens, UniProt O15264+P40337).
T3 construct: encoding a region spanning amino acids 1–365; His6 (N); made in house; host or cells: E. coli BL21-CodonPlus(DE3)-RIPL (p38δ); E. coli BL21(DE3) (GST-VBC)
The series can be described thus: SPR ternary binding, equimolar p38δ:PROTAC injected onto immobilized VHL. The conditions noted are these: for p38δ:PROTAC:VHL t1/2: ternary complex half-life. How it is done:
SPR experiments were conducted on a Biacore 3000 instrument (GE Healthcare) at room temperature. GST antibody was immobilized through direct amination onto a carboxymethylated dextran surface (CM5) and GST-VBC was captured on the CM5 surface. This prepared surface was equilibrated over 3 h in running buffer (10 mM HEPES buffer pH 7.4, 150 mM NaCl, 0.4 mg mL^−1 BSA, 0.005% P20, 2% DMSO). All compounds were prepared in 100% DMSO stock plates with a top concentration of 500 µM in a 3× serial dilution. Compounds were transferred from the stock plate to the assay plate and diluted into running buffer without DMSO. Equimolar concentration of target protein was added to corresponding compound wells. All compounds were run as a 12-point concentration series with a final assay top concentration of 50 µM to measure p38δ:PROTAC and VHL:PROTAC binding and top concentration of 5 µM to measure p38δ:PROTAC:VHL binding. All compounds were injected for 60 s and allowed to dissociate for 300 s. Data analysis was performed in Scrubber 2 (BioLogic Software). Blanks from reference flow cell containing immobilized GST-VBC were subtracted to correct for noise and data were solvent-corrected against a standard DMSO curve. All reported Kd values represent an average of at least two replicates and were obtained by fitting to a minimum of five concentrations using a 1:1 fitting algorithm.

Where [1] appears, read: SPR ternary, Replicate 2, read-out: koff.
The mark [2] stands for this setting: SPR, ternary, VHL immobilized, read-out: p38δ:PROTAC:VHL koff.

Where two headings read alike, the source gives them in different places.

T3 sequence (P40337 whole entry, one chain of several, the tested form may be a part): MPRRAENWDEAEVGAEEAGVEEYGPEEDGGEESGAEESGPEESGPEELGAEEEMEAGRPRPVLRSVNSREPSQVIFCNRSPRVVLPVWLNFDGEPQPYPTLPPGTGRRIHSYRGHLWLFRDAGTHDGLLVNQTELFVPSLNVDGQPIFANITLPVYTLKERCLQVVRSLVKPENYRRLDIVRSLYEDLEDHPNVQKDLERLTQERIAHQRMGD
T3 sequence (Q15370 whole entry partner, one chain of several, the tested form may be a part): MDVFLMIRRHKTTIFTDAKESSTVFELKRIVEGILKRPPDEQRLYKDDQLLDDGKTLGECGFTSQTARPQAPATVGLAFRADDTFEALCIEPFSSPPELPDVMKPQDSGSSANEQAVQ
T3 sequence (Q15369 whole entry partner, one chain of several, the tested form may be a part): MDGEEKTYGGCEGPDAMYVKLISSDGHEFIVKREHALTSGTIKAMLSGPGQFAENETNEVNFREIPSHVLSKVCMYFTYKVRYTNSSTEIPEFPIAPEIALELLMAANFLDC

For orientation: koff means a measure of how fast the partners let go of each other. Broadly, the Kd is the free concentration of one partner at which half of the binding sites on the other are occupied at equilibrium, for simple one-to-one binding. Low values mean tighter binding, high ones weaker binding. The kon is a measure of how fast the partners come together. On to `COc1cc2c(Oc3ccc(NC(=O)C4(C(=O)Nc5ccc(F)cc5)CC4)cc3F)ccnc2cc1OCCOCCOCCOc1cc(-c2scnc2C)ccc1CNC(=O)[C@@H]1C[C@@H](O)CN1C(=O)[C@H](C(C)C)N1Cc2ccccc2C1=O` [SJFδ], for which the “thermal shift in the p38δ melting profile” value on p38δ is “more pronounced at each melting temperature”. On FLAG-p38δ, the “ubiquitination of immunoprecipitated FLAG-p38δ” value was “levels of ubiquitination of immunoprecipitated p38δ greater than control cells”. For the same molecule, at p38δ:PROTAC:VHL (SPR), the “leftward shift of ternary affinity from the VHL:PROTAC binary affinity” value is ~ 8 fold. For the same molecule, the off-rate (koff) at p38δ:PROTAC:VHL (setting [1]) turned out to be 0.017 s⁻¹; on p38δ:PROTAC:VHL (setting [2]), 0.018 s⁻¹. Besides, the Kd was 358 nM on p38δ:PROTAC:VHL (SPR, Replicate 1) and 514 nM on p38δ:PROTAC:VHL (SPR, Replicate 2). In addition, on p38δ:PROTAC:VHL (SPR), the “p38δ:PROTAC:VHL t1/2” value was 38 s. At p38δ:PROTAC:VHL (SPR, ternary, VHL immobilized), this molecule displayed an on-rate constant (kon) of 39600 M⁻¹ s⁻¹.
`COc1cc2c(Oc3ccc(NC(=O)C4(C(=O)Nc5ccc(F)cc5)CC4)cc3F)ccnc2cc1OCCCCOCCCCOCC(=O)N[C@H](C(=O)N1C[C@H](O)C[C@H]1C(=O)NCc1ccc(-c2scnc2C)cc1)C(C)(C)C` [SJFα]: on p38δ, the “thermal shift in the p38δ melting profile” value was “small, but statistically significant”. Moreover, the “ubiquitination of immunoprecipitated FLAG-p38δ” value on FLAG-p38δ is recorded as “far less abundant”. The “ternary affinity weaker than the SJFδ-induced complex” value on p38δ:PROTAC:VHL (SPR) is on record as ~ 3 fold. The koff at p38δ:PROTAC:VHL (SPR ternary, Replicate 1, read-out: koff) came out at 0.083 s⁻¹; at p38δ:PROTAC:VHL (setting [1]) it was 0.082 s⁻¹; on p38δ:PROTAC:VHL (setting [2]), 0.072 s⁻¹. The “p38δ:PROTAC:VHL t1/2” value at p38δ:PROTAC:VHL (SPR) was found to be 8 s. At p38δ:PROTAC:VHL (SPR, ternary, VHL immobilized), this molecule came in with an on-rate constant (kon) of 70100 M⁻¹ s⁻¹.
